Assay results: PubChem BioAssay (NCI)
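GI50: concentration for 50% inhibition of growth. At the TGI there is no net growth.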

Experiments:
Assay in all cases: NCI tumour cell line growth inhibition, 384-well format
EKVX NSCLC = tested on: EKVX NSCLC
MOLT-4 leukemia = tested on: MOLT-4 leukemia
UACC-257 melanoma = tested on: UACC-257 melanoma
LOX IMVI melanoma = tested on: LOX IMVI melanoma
SN12C renal = tested on: SN12C renal
KM12 colon = tested on: KM12 colon
M14 melanoma = tested on: M14 melanoma
A498 renal = tested on: A498 renal
OVCAR-5 ovarian = tested on: OVCAR-5 ovarian
PC-3 prostate = tested on: PC-3 prostate
SK-MEL-5 melanoma = tested on: SK-MEL-5 melanoma
IGROV1 ovarian = tested on: IGROV1 ovarian
HCT-15 colon = tested on: HCT-15 colon
K-562 leukemia = tested on: K-562 leukemia
MCF7 breast = tested on: MCF7 breast
HL-60(TB) leukemia = tested on: HL-60(TB) leukemia
786-0 renal = tested on: 786-0 renal
NCI-H522 lung = tested on: NCI-H522 lung
HOP-92 NSCLC = tested on: HOP-92 NSCLC
SF-539 CNS = tested on: SF-539 CNS
HS 578T breast = tested on: HS 578T breast
T-47D breast = tested on: T-47D breast
SNB-75 CNS = tested on: SNB-75 CNS
NCI-H226 lung = tested on: NCI-H226 lung
MALME-3M melanoma = tested on: MALME-3M melanoma
OVCAR-8 ovarian = tested on: OVCAR-8 ovarian
DU-145 prostate = tested on: DU-145 prostate
NCI-H460 NSCLC = tested on: NCI-H460 NSCLC
U251 glioblastoma = tested on: U251 glioblastoma
MDA-MB-231 breast = tested on: MDA-MB-231 breast
NCI/ADR-RES ovarian = tested on: NCI/ADR-RES ovarian
SK-MEL-2 melanoma = tested on: SK-MEL-2 melanoma
UO-31 renal = tested on: UO-31 renal
BT-549 breast = tested on: BT-549 breast
NCI-H322M lung = tested on: NCI-H322M lung
SR leukemia = tested on: SR leukemia
HOP-62 NSCLC = tested on: HOP-62 NSCLC
CCRF-CEM leukemia = tested on: CCRF-CEM leukemia
NCI-H23 lung = tested on: NCI-H23 lung
MDA-MB-468 breast = tested on: MDA-MB-468 breast
HCT-116 colon = tested on: HCT-116 colon
TK-10 renal = tested on: TK-10 renal
RPMI-8226 leukemia = tested on: RPMI-8226 leukemia
HT29 colon = tested on: HT29 colon
CAKI-1 renal = tested on: CAKI-1 renal
SF-295 CNS = tested on: SF-295 CNS
UACC-62 melanoma = tested on: UACC-62 melanoma

Question: Which GI50 (EKVX NSCLC) does the source give for CC1(N)CCN(c2cccnc2NC(=O)c2nc(-c3ncccc3C(F)(F)F)cnc2N)CC1 here?
Answer: Its GI50 is 7.15 µM.

Question: And the TGI (EKVX NSCLC)?
Answer: Its TGI is 38.9 µM.

Question: And the GI50 (MOLT-4 leukemia)?
Answer: The GI50 was 12.8 µM.

Question: And the TGI (MOLT-4 leukemia)?
Answer: The TGI was 25.6 µM.

Question: What about the GI50 (UACC-257 melanoma) of the same compound?
Answer: The GI50 was 7.77 µM.

Question: What about the TGI (UACC-257 melanoma) of the same compound?
Answer: Its TGI is 20.8 µM.

Question: And the GI50 (LOX IMVI melanoma)?
Answer: The GI50 was 19 µM.

Question: What about the TGI (LOX IMVI melanoma) of the same compound?
Answer: The TGI was 33.6 µM.

Question: And the GI50 (SN12C renal)?
Answer: Its GI50 is 21 µM.

Question: What about the TGI (SN12C renal) of the same compound?
Answer: Its TGI is 56.8 µM.

Question: And the GI50 (KM12 colon)?
Answer: The GI50 was 0.308 µM.

Question: What about the TGI (KM12 colon) of the same compound?
Answer: The TGI was 20.2 µM.

Question: What about the GI50 (M14 melanoma) of the same compound?
Answer: Its GI50 is 20.3 µM.

Question: And the TGI (M14 melanoma)?
Answer: The TGI was 40.3 µM.

Question: What about the GI50 (A498 renal) of the same compound?
Answer: The GI50 was 8.29 µM.

Question: What about the TGI (A498 renal) of the same compound?
Answer: Its TGI is 22.8 µM.

Question: What about the GI50 (OVCAR-5 ovarian) of the same compound?
Answer: Its GI50 is 16.8 µM.

Question: And the TGI (OVCAR-5 ovarian)?
Answer: Its TGI is 48.1 µM.

Question: And the GI50 (PC-3 prostate)?
Answer: Its GI50 is 16.7 µM.

Question: And the TGI (PC-3 prostate)?
Answer: Its TGI is 57 µM.

Question: What about the GI50 (SK-MEL-5 melanoma) of the same compound?
Answer: Its GI50 is 18.2 µM.

Question: And the TGI (SK-MEL-5 melanoma)?
Answer: The TGI was 34.3 µM.

Question: And the GI50 (IGROV1 ovarian)?
Answer: Its GI50 is 3.28 µM.

Question: And the TGI (IGROV1 ovarian)?
Answer: Its TGI is 15 µM.

Question: What about the GI50 (HCT-15 colon) of the same compound?
Answer: The GI50 was 20.7 µM.

Question: And the TGI (HCT-15 colon)?
Answer: The TGI was 56.3 µM.

Question: And the GI50 (K-562 leukemia)?
Answer: Its GI50 is 16.3 µM.

Question: What about the TGI (K-562 leukemia) of the same compound?
Answer: Its TGI is 31.3 µM.

Question: What about the GI50 (MCF7 breast) of the same compound?
Answer: Its GI50 is 24.6 µM.

Question: And the TGI (MCF7 breast)?
Answer: Its TGI is > 54.9 µM.

Question: What about the GI50 (HL-60(TB) leukemia) of the same compound?
Answer: Its GI50 is 7.32 µM.

Question: And the TGI (HL-60(TB) leukemia)?
Answer: The TGI was 18 µM.

Question: What about the GI50 ([…]-0 renal) of the same compound?
Answer: Its GI50 is 8.25 µM.

Question: What about the TGI (786-0 renal) of the same compound?
Answer: The TGI was 24 µM.

Question: And the GI50 (NCI-H522 lung)?
Answer: The GI50 was 4.86 µM.

Question: And the TGI (NCI-H522 lung)?
Answer: The TGI was 18.8 µM.

Question: What about the GI50 (HOP-92 NSCLC) of the same compound?
Answer: The GI50 was 20.4 µM.

Question: What about the TGI (HOP-92 NSCLC) of the same compound?
Answer: The TGI was 57.6 µM.

Question: And the GI50 (SF-539 CNS)?
Answer: The GI50 was 24 µM.

Question: And the TGI (SF-539 CNS)?
Answer: The TGI was > 51.2 µM.

Question: What about the GI50 (HS 578T breast) of the same compound?
Answer: The GI50 was 15.9 µM.

Question: What about the TGI (HS 578T breast) of the same compound?
Answer: Its TGI is 33.2 µM.

Question: What about the GI50 (T-47D breast) of the same compound?
Answer: Its GI50 is 11.6 µM.

Question: And the TGI (T-47D breast)?
Answer: Its TGI is 26.9 µM.

Question: What about the GI50 (SNB-75 CNS) of the same compound?
Answer: The GI50 was 17 µM.

Question: What about the TGI (SNB-75 CNS) of the same compound?
Answer: Its TGI is 48.2 µM.

Question: And the GI50 (NCI-H226 lung)?
Answer: Its GI50 is 16.9 µM.

Question: And the TGI (NCI-H226 lung)?
Answer: The TGI was 47.4 µM.

Question: And the GI50 (MALME-3M melanoma)?
Answer: Its GI50 is 14.8 µM.

Question: What about the TGI (MALME-3M melanoma) of the same compound?
Answer: Its TGI is 28.1 µM.

Question: And the GI50 (OVCAR-8 ovarian)?
Answer: The GI50 was 30.9 µM.

Question: What about the TGI (OVCAR-8 ovarian) of the same compound?
Answer: Its TGI is > 70.5 µM.

Question: What about the GI50 (DU-145 prostate) of the same compound?
Answer: The GI50 was 19.3 µM.

Question: What about the TGI (DU-145 prostate) of the same compound?
Answer: The TGI was > 58.8 µM.

Question: What about the GI50 (NCI-H460 NSCLC) of the same compound?
Answer: The GI50 was 17.6 µM.

Question: And the TGI (NCI-H460 NSCLC)?
Answer: The TGI was 32.4 µM.

Question: What about the GI50 (U251 glioblastoma) of the same compound?
Answer: The GI50 was 13.6 µM.

Question: What about the TGI (U251 glioblastoma) of the same compound?
Answer: The TGI was 30.5 µM.

Question: And the GI50 (MDA-MB-231 breast)?
Answer: The GI50 was 20.5 µM.

Question: What about the TGI (MDA-MB-231 breast) of the same compound?
Answer: Its TGI is 46.9 µM.

Question: What about the GI50 (NCI/ADR-RES ovarian) of the same compound?
Answer: Its GI50 is > 100 µM.

Question: What about the TGI (NCI/ADR-RES ovarian) of the same compound?
Answer: Its TGI is > 100 µM.

Question: What about the GI50 (SK-MEL-2 melanoma) of the same compound?
Answer: Its GI50 is 18.4 µM.

Question: And the TGI (SK-MEL-2 melanoma)?
Answer: Its TGI is 47.2 µM.

Question: What about the GI50 (UO-31 renal) of the same compound?
Answer: The GI50 was 31 µM.

Question: And the TGI (UO-31 renal)?
Answer: Its TGI is > 100 µM.

Question: What about the GI50 (BT-549 breast) of the same compound?
Answer: Its GI50 is 8.16 µM.

Question: And the TGI (BT-549 breast)?
Answer: The TGI was 20.6 µM.

Question: What about the GI50 (NCI-H322M lung) of the same compound?
Answer: Its GI50 is 23.7 µM.

Question: And the TGI (NCI-H322M lung)?
Answer: The TGI was > 60 µM.

Question: And the GI50 (SR leukemia)?
Answer: The GI50 was 9.47 µM.

Question: What about the TGI (SR leukemia) of the same compound?
Answer: The TGI was 21.5 µM.

Question: What about the GI50 (HOP-62 NSCLC) of the same compound?
Answer: The GI50 was 28.8 µM.

Question: And the TGI (HOP-62 NSCLC)?
Answer: The TGI was > 77.6 µM.

Question: What about the GI50 (CCRF-CEM leukemia) of the same compound?
Answer: The GI50 was 15.4 µM.

Question: And the TGI (CCRF-CEM leukemia)?
Answer: The TGI was 28.9 µM.

Question: And the GI50 (NCI-H23 lung)?
Answer: Its GI50 is 29.7 µM.

Question: What about the TGI (NCI-H23 lung) of the same compound?
Answer: Its TGI is > 78.7 µM.

Question: And the GI50 (MDA-MB-468 breast)?
Answer: The GI50 was 13.6 µM.

Question: What about the TGI (MDA-MB-468 breast) of the same compound?
Answer: The TGI was 28.2 µM.

Question: What about the GI50 (HCT-116 colon) of the same compound?
Answer: Its GI50 is 11.6 µM.

Question: And the TGI (HCT-116 colon)?
Answer: The TGI was 26 µM.

Question: And the GI50 (TK-10 renal)?
Answer: The GI50 was 7.5 µM.

Question: And the TGI (TK-10 renal)?
Answer: The TGI was 26.1 µM.

Question: And the GI50 (RPMI-8226 leukemia)?
Answer: Its GI50 is 10.4 µM.

Question: What about the TGI (RPMI-8226 leukemia) of the same compound?
Answer: The TGI was 32.8 µM.

Question: What about the GI50 (HT29 colon) of the same compound?
Answer: Its GI50 is 17.2 µM.

Question: And the TGI (HT29 colon)?
Answer: Its TGI is > 58.8 µM.

Question: And the GI50 (CAKI-1 renal)?
Answer: Its GI50 is 6.11 µM.

Question: What about the TGI (CAKI-1 renal) of the same compound?
Answer: The TGI was 24.2 µM.

Question: What about the GI50 (SF-295 CNS) of the same compound?
Answer: Its GI50 is > 49.3 µM.

Question: What about the TGI (SF-295 CNS) of the same compound?
Answer: Its TGI is > 72.6 µM.

Question: And the GI50 (UACC-62 melanoma)?
Answer: Its GI50 is 19.4 µM.

Question: And the TGI (UACC-62 melanoma)?
Answer: The TGI was > 53.4 µM.
